Earlier results on two compounds are cited in patent publication US5434330A, “Process and apparatus for separation of constituents of gases using gas hydrates” (priority 1993, dated 1995).

Like-named read-outs stand apart in the source and are kept apart here.

The conditions of data set [1]: for calculation at 253K.
For data set [2] the following is noted: in ethyl ether, 20° C.
For data set [3] the following is noted: 25° C.

Regarding `C` [methane], the “methane-methanol Henry's law constant” value in data set [1] (in methanol) is 824 atm. In addition, the “methane-water Henry's law constant” value in data set [1] (in water) is listed as 10,193 atm. For the same compound, the Ostwald coefficient in data set [2] is recorded as 1028. Moreover, the “SOLUBILITY OF METHANE, HENRY'S CONSTANT H” value was 533 atm in data set [3] (in Acetone), 770 atm in data set [3] (in Ethanol), 1137 atm in data set [3] (in Methanol) and 39,052 atm in data set [3] (in Water).

Regarding `N#N` [nitrogen], the “nitrogen-methanol Henry's law constant” value in data set [1] (in methanol) is 3,632 atm. The “nitrogen-water Henry's law constant” value in data set [1] (in water) is on record as 27,987 atm.
